# Key:
# [1] = Study A: randomized, double-blind, placebo-controlled study, acute treatment of a single migraine attack; format: in vivo, human; conditions: for Absence of Most-Bothersome Migraine Associated Symptom at 2 hours after the initial dose: Odds Ratio (95% CI) / Pain Freedom at 2 hours after the initial dose: Odds Ratio (95% CI): mITT
# Experimental: (§1) Study A and Study B were multicenter, randomized, double-blind, placebo-controlled, parallel-group, studies designed to evaluate the efficacy, safety, and tolerability of three doses of ubrogepant (25 mg, 50 mg and 100 mg) compared to placebo for the acute treatment of a single migraine attack. In Study A, patients were randomized (1:1:1) to 1 of 3 treatment groups: placebo, ubrogepant 50 mg, or ubrogepant 100 mg. In Study B, patients were randomized (1:1:1) to 1 of 3 treatment groups: placebo, ubrogepant 25 mg, or ubrogepant 50 mg. Patients were stratified by their previous response to triptans (triptan responder, triptan insufficient responder, triptan naïve) and their current use of prophylactic concomitant medication for migraine (yes/no). To be randomized, eligible patients had to be 18 to 75 years of age (inclusive), have a history of migraine with or without aura for at least 1 year consistent with a diagnosis according to the International Classification of Headache Disorders criteria, 3rd edition, beta version, and had to have experienced between 2 to 8 migraine attacks with moderate to severe headache pain in each of the 3 months before Screening (Visit 1). Patients who had clinically significant hematologic, endocrine, cardiovascular, cerebrovascular, pulmonary, renal, hepatic, gastrointestinal, or neurologic disease were excluded from the study. Study patients randomized to a treatment group had up to 60 days to treat a single qualifying migraine attack of moderate or severe pain intensity at home. In Study A, a total of 1672 patients were randomized to double-blind treatment (ITT population), and 1436 patients took at least 1 dose of double-blind IP (safety population). A total of 1327 treated patients recorded a baseline migraine headache severity measurement and at least 1 postdose migraine headache severity or migraine-associated symptom measurement within 2 hours after dosing (mITT population). In Study B, a total of 1,686 patients were randomized to double-blind treatment (ITT population), and 1,465 patients took at least 1 dose of double-blind IP (safety population). A total of 1355 treated patients recorded a baseline migraine headache severity measurement and at least 1 postdose migraine headache severity or migraine-associated symptom measurement within 2 hours after dosing (mITT population). The coprimary efficacy endpoints for the United States were pain freedom (PF) at 2 hours after the initial dose, defined as a reduction in headache severity from moderate/severe at baseline to no pain, at 2 hours after the initial dose and absence of the most bothersome migraine-associated symptom at 2 hours after the initial dose. The most bothersome migraine-associated symptom was identified at baseline for each patient.
# [2] = Study B: randomized, double-blind, placebo-controlled study, acute treatment of a single migraine attack; format: in vivo, human; conditions: for Absence of Most-Bothersome Migraine Associated Symptom at 2 hours after the initial dose: Odds Ratio (95% CI) / Pain Freedom at 2 hours after the initial dose: Odds Ratio (95% CI): mITT
# Experimental: as §1
# [3] = 50 mg vs placebo, Triptan Insufficient Responder
# [4] = 50 mg vs placebo, Triptan Naïve
# [5] = 50 mg vs placebo, Triptan Responder
# [6] = 100 mg vs placebo, Triptan Insufficient Responder
# [7] = 100 mg vs placebo, Triptan Naïve
# [8] = 100 mg vs placebo, Triptan Responder
# [9] = 100 mg, Triptan Insufficient Responder, N1=126, mITT
# [10] = 100 mg, Triptan Naïve, N1=149, mITT
# [11] = 100 mg, Triptan Responder, N1=173, mITT
# [12] = 25 mg vs placebo, Triptan Insufficient Responder
# [13] = 25 mg vs placebo, Triptan Responder
# [14] = 25 mg, Triptan Insufficient Responder, N1=100, mITT
# [15] = 50 mg, Triptan Insufficient Responder, N1=110, mITT
# [16] = 50 mg, Triptan Responder, N1=160, mITT
smiles,measurement,setting,value
"C[C@@H]1[C@H](c2ccccc2)C[C@H](NC(=O)c2cnc3c(c2)C[C@@]2(C3)C(=O)Nc3ncccc32)C(=O)N1CC(F)(F)F [Ubrogepant, ubrogepant]",Absence of Most-Bothersome Migraine Associated Symptom at 2 hours after the initial dose: Odds Ratio (95% CI),[1]; [3],1.80
same,Pain Freedom at 2 hours after the initial dose: Odds Ratio (95% CI),[1]; [3],2.41
same,Absence of Most-Bothersome Migraine Associated Symptom at 2 hours after the initial dose: Odds Ratio (95% CI),[1]; [4],1.48
same,Pain Freedom at 2 hours after the initial dose: Odds Ratio (95% CI),[1]; [4],1.60
same,Absence of Most-Bothersome Migraine Associated Symptom at 2 hours after the initial dose: Odds Ratio (95% CI),[1]; [5],1.85
same,Pain Freedom at 2 hours after the initial dose: Odds Ratio (95% CI),[1]; [5],1.86
same,Absence of Most-Bothersome Migraine Associated Symptom at 2 hours after the initial dose: Responder rate (in parentheses),"[1]; 50 mg, Triptan Insufficient Responder, N1=116, mITT",(33.6)
same,Pain Freedom at 2 hours after the initial dose: Responder rate (in parentheses),"[1]; 50 mg, Triptan Insufficient Responder, N1=118, mITT",(13.6)
same,Absence of Most-Bothersome Migraine Associated Symptom at 2 hours after the initial dose: Responder rate (in parentheses),"[1]; 50 mg, Triptan Naïve, N1=132, mITT",(42.4)
same,Pain Freedom at 2 hours after the initial dose: Responder rate (in parentheses),"[1]; 50 mg, Triptan Naïve, N1=133, mITT",(24.8)
same,Pain Freedom at 2 hours after the initial dose: Responder rate (in parentheses),"[1]; 50 mg, Triptan Responder, N1=171, mITT",(18.7)
same,Absence of Most-Bothersome Migraine Associated Symptom at 2 hours after the initial dose: Responder rate (in parentheses),"[1]; 50 mg, Triptan Responder, N1=172, mITT",(39.0)
same,Absence of Most-Bothersome Migraine Associated Symptom at 2 hours after the initial dose: Odds Ratio (95% CI),[1]; [6],1.50
same,Pain Freedom at 2 hours after the initial dose: Odds Ratio (95% CI),[1]; [6],2.49
same,Absence of Most-Bothersome Migraine Associated Symptom at 2 hours after the initial dose: Odds Ratio (95% CI),[1]; [7],1.22
same,Pain Freedom at 2 hours after the initial dose: Odds Ratio (95% CI),[1]; [7],1.26
same,Absence of Most-Bothersome Migraine Associated Symptom at 2 hours after the initial dose: Odds Ratio (95% CI),[1]; [8],2.18
same,Pain Freedom at 2 hours after the initial dose: Odds Ratio (95% CI),[1]; [8],2.89
same,Absence of Most-Bothersome Migraine Associated Symptom at 2 hours after the initial dose: Responder rate (in parentheses),[1]; [9],(30.2)
same,Pain Freedom at 2 hours after the initial dose: Responder rate (in parentheses),[1]; [9],(14.3)
same,Absence of Most-Bothersome Migraine Associated Symptom at 2 hours after the initial dose: Responder rate (in parentheses),[1]; [10],(37.6)
same,Pain Freedom at 2 hours after the initial dose: Responder rate (in parentheses),[1]; [10],(20.8)
same,Absence of Most-Bothersome Migraine Associated Symptom at 2 hours after the initial dose: Responder rate (in parentheses),[1]; [11],(43.4)
same,Pain Freedom at 2 hours after the initial dose: Responder rate (in parentheses),[1]; [11],(26.6)
same,Absence of Most-Bothersome Migraine Associated Symptom at 2 hours after the initial dose: Odds Ratio (95% CI),[2]; [12],1.65
same,Pain Freedom at 2 hours after the initial dose: Odds Ratio (95% CI),[2]; [12],1.81
same,Absence of Most-Bothersome Migraine Associated Symptom at 2 hours after the initial dose: Odds Ratio (95% CI),"[2]; 25 mg vs placebo, Triptan Naive",1.32
same,Pain Freedom at 2 hours after the initial dose: Odds Ratio (95% CI),"[2]; 25 mg vs placebo, Triptan Naïve",1.50
same,Absence of Most-Bothersome Migraine Associated Symptom at 2 hours after the initial dose: Odds Ratio (95% CI),[2]; [13],1.26
same,Pain Freedom at 2 hours after the initial dose: Odds Ratio (95% CI),[2]; [13],1.52
same,Absence of Most-Bothersome Migraine Associated Symptom at 2 hours after the initial dose: Responder rate (in parentheses),[2]; [14],(37.0)
same,Pain Freedom at 2 hours after the initial dose: Responder rate (in parentheses),[2]; [14],(18.0)
same,Absence of Most-Bothersome Migraine Associated Symptom at 2 hours after the initial dose: Responder rate (in parentheses),"[2]; 25 mg, Triptan Naive, N1=184, mITT",(34.2)
same,Pain Freedom at 2 hours after the initial dose: Responder rate (in parentheses),"[2]; 25 mg, Triptan Naïve, N1=184, mITT",(25.5)
same,Absence of Most-Bothersome Migraine Associated Symptom at 2 hours after the initial dose: Responder rate (in parentheses),"[2]; 25 mg, Triptan Responder, N1=150, mITT",(32.0)
same,Pain Freedom at 2 hours after the initial dose: Responder rate (in parentheses),"[2]; 25 mg, Triptan Responder, N1=151, mITT",(16.6)
same,Absence of Most-Bothersome Migraine Associated Symptom at 2 hours after the initial dose: Odds Ratio (95% CI),[2]; [3],1.72
same,Pain Freedom at 2 hours after the initial dose: Odds Ratio (95% CI),[2]; [3],1.97
same,Absence of Most-Bothersome Migraine Associated Symptom at 2 hours after the initial dose: Odds Ratio (95% CI),"[2]; 50 mg vs placebo, Triptan Naive",1.54
same,Pain Freedom at 2 hours after the initial dose: Odds Ratio (95% CI),[2]; [4],1.22
same,Absence of Most-Bothersome Migraine Associated Symptom at 2 hours after the initial dose: Odds Ratio (95% CI),[2]; [5],1.76
same,Pain Freedom at 2 hours after the initial dose: Odds Ratio (95% CI),[2]; [5],2.19
same,Absence of Most-Bothersome Migraine Associated Symptom at 2 hours after the initial dose: Responder rate (in parentheses),[2]; [15],(38.2)
same,Pain Freedom at 2 hours after the initial dose: Responder rate (in parentheses),[2]; [15],(19.1)
same,Absence of Most-Bothersome Migraine Associated Symptom at 2 hours after the initial dose: Responder rate (in parentheses),"[2]; 50 mg, Triptan Naive, N1=193, mITT",(39.4)
same,Pain Freedom at 2 hours after the initial dose: Responder rate (in parentheses),"[2]; 50 mg, Triptan Naïve, N1=194, mITT",(23.2)
same,Absence of Most-Bothersome Migraine Associated Symptom at 2 hours after the initial dose: Responder rate (in parentheses),[2]; [16],(38.8)
same,Pain Freedom at 2 hours after the initial dose: Responder rate (in parentheses),[2]; [16],(21.9)
